From patent US11214803B2, “Modulators of YAP1 expression” (Ionis Pharmaceuticals, Inc., priority 2019, dated 2022)
Strand notation (5' to 3'): a small letter for the sugar, then the base; units joined by * are phosphorothioate-linked, units joined directly phosphodiester-linked; [ ] holds rarer units or linkages, { } end groups; capitals alone tell only the bases. e = 2'-O-(2-methoxyethyl) (MOE); k = constrained ethyl (cEt); [5mC] = 5-methylcytosine; d = 2'-deoxy (DNA); m = 2'-O-methyl

Test system: Yap1 mRNA
Assay: Antisense inhibition of human Yap1 in SNU-449 cells by modified oligonucleotides, single dose (Example 5, RTS36584)
Format: cell-based
Summary of the method: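 SNU-449 cells (10,000/well) took up 2,000 nM oligonucleotide by free uptake for about 48 h. Yap1 mRNA was measured by qRT-PCR with primer probe set RTS36584 and normalised to RIBOGREEN total RNA. Values are % of untreated control; asterisked oligos target the amplicon region.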

[1] = Table 49, Yap1 mRNA level relative to untreated control, modified oligonucleotides targeting SEQ ID NO.: 1 and 2
[2] = Table 51, Yap1 mRNA remaining as percent of untreated control (UT), SNU-449 cells, single dose
[3] = Table 46, Yap1 mRNA as percent of untreated control, SNU-449 cells, single dose
[4] = Table 40 (separate experiment), SNU-449 cells, 10,000 cells per well, free uptake, 2,000 nM oligonucleotide, approx. 48 hours, RTS36584, normalized to RIBOGREEN, Yap1 mRNA relative to untreated control
[5] = Table 43 experiment, SNU-449 cells, 10,000 cells per well, free uptake, 2,000 nM, approximately 48 hours, RTS36584, Yap1 mRNA normalized to RIBOGREEN, relative to untreated control cells
[6] = Table 39, SNU-449 cells, 10,000 cells per well, free uptake, 2,000 nM oligonucleotide, approx. 48 hours, RTS36584, normalized to RIBOGREEN, Yap1 mRNA relative to untreated control
[7] = Table 48, Yap1 mRNA level relative to untreated control, modified oligonucleotides targeting SEQ ID NO.: 1 and 2
[8] = Table 44 experiment, SNU-449 cells, 10,000 cells per well, free uptake, 2,000 nM, approximately 48 hours, RTS36584, Yap1 mRNA normalized to RIBOGREEN, relative to untreated control cells
[9] = Table 45, Yap1 mRNA as percent of untreated control, SNU-449 cells, single dose
[10] = Yap1 mRNA, percent of untreated control, modified oligonucleotides targeting SEQ ID NO: 1 and 2, Table 47

Question: For “1200788 (kG*kA*kA*dA*dT*mU*dG*dT*d[5mC]*dT*d[5mC]*dA*dT*kG*k[5mC]*k[5mC]; antisense) [Compound 1200788]”, which “YAP1 (% UT)” value (Table 52, Yap1 mRNA, modified oligonucleotides targeting SEQ ID NO: 1 and 2) is on record?
Answer: Its value is 19 % UT.

Question: With “1198582 (antisense kA*kT*kA*dG*dT*dG*d[5mC]*dT*dT*dT*dG*dG*kA*kA*kG*eA) [Compound 1198582]” as the substance, how does the “YAP1 (% UT)” value [1] read?
Answer: The value was 63 % UT.

Question: How did the “YAP1 (% UT)” value [2] turn out when “1200800 (T_{ks}A_{ks}T_{ks}A_{ds}T_{ds}U_{ys}A_{ds}G_{ds}A_{ds}G_{ds}T_{ds}A_{ds}T_{ds}G_{ks}T_{ks}G_{k}; antisense; as printed in the source, key not given here) [Compound 1200800]” was run?
Answer: Its value is 61 % UT.

Question: Which “YAP1 (% UT)” value [3] does the source give for “1198832 (kG*k[5mC]*dA*d[5mC]*dT*dT*dT*dT*dA*d[5mC]*dA*kT*eT*kA*eG*kG; antisense) [Compound 1198832]” here?
Answer: Its value is 20 % UT.

Question: “1197302 (k[5mC]*kA*kG*dA*mU*dT*dT*dA*dG*dG*dA*dT*dG*k[5mC]*kA*kT; antisense) [Compound 1197302]” was tested. Which “YAP1 (% UT)” value [2] did it give?
Answer: Its value is 54 % UT.

Question: With “1198726 (kT*eT*kA*dG*dA*dG*dT*dA*dT*dG*dT*dG*eG*e[5mC]*kA*kA; antisense) [Compound 1198726]” as the substance, how does the “YAP1 (% UTC)” value [4] read?
Answer: Its value is 28 % UTC.

Question: For “1198751 (kT*eT*kG*dG*dA*dA*dG*dA*dT*d[5mC]*dT*dG*eA*eA*kA*k[5mC]; antisense) [Compound 1198751]”, which “YAP1 (% UTC)” value [4] is on record?
Answer: The value was 76 % UTC.

Question: Which “YAP1 (% UTC)” value (Table 41, SNU-449 cells, 10,000 cells per well, free uptake, 2,000 nM modified oligonucleotide, approximately 48 hours, RTS36584, normalized to RIBOGREEN, Yap1 mRNA relative to untreated control cells) does the source give for “1198791 (antisense kT*eT*kA*dA*dA*dG*dT*dG*dT*dA*dT*dG*eT*e[5mC]*kA*kG) [Compound 1198791]” here?
Answer: The value was 39 % UTC.

Question: “1198482 (antisense kA*k[5mC]*dT*dT*dT*dT*dA*d[5mC]*dA*dT*dT*eA*kG*eG*kA*eA) [Compound 1198482]” was tested. Which “YAP1 (% UTC)” value [5] did it give?
Answer: Its value is 63 % UTC.

Question: With “1198816 (antisense kT*kT*dA*dG*dA*dG*dT*dA*dT*dG*dT*kG*eG*k[5mC]*eA*kA) [Compound 1198816]” as the substance, how does the “YAP1 (% UT)” value [3] read?
Answer: The value was 27 % UT.

Question: For “1198374 (kG*dA*dA*dA*dT*dT*dG*dT*d[5mC]*dT*d[5mC]*kA*eT*kG*e[5mC]*k[5mC]; antisense) [Compound 1198374]”, which “YAP1 (% UTC)” value [6] is on record?
Answer: The value was 24 % UTC.

Question: Which “YAP1 (% UT)” value [7] does the source give for “1198287 (kA*kA*kA*dT*dT*dG*dT*d[5mC]*dT*d[5mC]*dA*dT*kG*e[5mC]*k[5mC]*eT; antisense) [Compound 1198287]” here?
Answer: Its value is 13 % UT.

Question: With “1198501 (kG*kA*dT*dT*dT*dA*dG*dG*dA*dT*dG*e[5mC]*kA*eT*kG*eG; antisense) [Compound 1198501]” as the substance, how does the “YAP1 (% UTC)” value [8] read?
Answer: Its value is 5 % UTC.

Question: Which “YAP1 (% UT)” value [2] does the source give for “1200798 (kT*kA*kT*dT*dA*mG*dA*dG*dT*dA*dT*dG*dT*kG*kG*k[5mC]; antisense) [Compound 1200798]” here?
Answer: Its value is 7 % UT.

Question: How did the “YAP1 (% UT)” value [3] turn out when “1198810 (antisense kT*kG*dG*dA*dA*dA*dT*dT*dG*dT*d[5mC]*kT*e[5mC]*kA*eT*kG) [Compound 1198810]” was run?
Answer: The value was 50 % UT.

Question: How did the “YAP1 (% UT)” value [2] turn out when “1200793 (kA*kG*kT*dA*dT*mG*dT*dG*dG*d[5mC]*dA*dA*dT*kA*kA*kT; antisense) [Compound 1200793]” was run?
Answer: Its value is 31 % UT.

Question: For “1198851 (CAGATTTAGGATGCAT; antisense; chemistry not fully specified) [Compound 1198851]”, which “YAP1 (% UT)” value [3] is on record?
Answer: Its value is 82 % UT.

Question: “1198800 (antisense kA*e[5mC]*kT*dA*dA*dG*dT*dA*dA*dG*dG*dT*eT*eT*k[5mC]*k[5mC]) [Compound 1198800]” was tested. Which “YAP1 (% UTC)” value [4] did it give?
Answer: Its value is 47 % UTC.

Question: With “1198695 (antisense kT*kT*dT*dA*dT*dG*dT*dA*dA*dT*dA*dT*kT*eG*k[5mC]*eA) [Compound 1198695]” as the substance, how does the “YAP1 (% UTC)” value (Table 42 (separate experiment), SNU-449 cells, 10,000 cells per well, free uptake, 2,000 nM modified oligonucleotide, approximately 48 hours, RTS36584, normalized to RIBOGREEN, Yap1 mRNA relative to untreated control cells) read?
Answer: Its value is 75 % UTC.

Question: With “1198947 (k[5mC]*kA*dA*d[5mC]*dT*d[5mC]*dT*dT*dA*dT*dA*kT*dG*kG*dT*kT; antisense) [Compound 1198947]” as the substance, how does the “YAP1 (% UTC)” value [9] read?
Answer: Its value is 88 % UTC.

Question: Which “YAP1 (% UTC)” value [5] does the source give for “1095595 (antisense k[5mC]*kA*d[5mC]*dT*dG*dA*dG*dG*dT*dA*dT*eA*eA*e[5mC]*kT*kG) [Compound 1095595]” here?
Answer: Its value is 63 % UTC.

Question: With “1198728 (kT*eA*kT*dT*dA*dG*dA*dG*dT*dA*dT*dG*eT*eG*kG*k[5mC]; antisense) [Compound 1198728]” as the substance, how does the “YAP1 (% UTC)” value [4] read?
Answer: The value was 17 % UTC.

Question: How did the “YAP1 (% UTC)” value [4] turn out when “1198729 (kA*eT*kA*dT*dT*dA*dG*dA*dG*dT*dA*dT*eG*eT*kG*kG; antisense) [Compound 1198729]” was run?
Answer: Its value is 21 % UTC.

Question: “1197194 (antisense kT*kT*kA*dG*dG*dA*dT*dG*d[5mC]*dA*dT*dG*dG*kT*kT*kT) [Compound 1197194]” was tested. Which “YAP1 (% UT)” value [10] did it give?
Answer: Its value is 37 % UT.

Question: Which “YAP1 (% UTC)” value [8] does the source give for “1198902 (kT*kT*dA*dG*dA*dG*dT*dA*dT*dG*dT*kG*dG*k[5mC]*dA*kA; antisense) [Compound 1198902]” here?
Answer: The value was 13 % UTC.

Question: How did the “YAP1 (% UT)” value [3] turn out when “1198871 (kT*kT*dT*dA*dT*dG*dT*dA*dA*dT*dA*kT*eT*kG*e[5mC]*kA; antisense) [Compound 1198871]” was run?
Answer: The value was 77 % UT.

Question: “1198278 (kT*kA*dA*dG*dT*dA*dA*dG*dG*dT*dT*eT*e[5mC]*e[5mC]*k[5mC]*kA; antisense) [Compound 1198278]” was tested. Which “YAP1 (% UTC)” value [5] did it give?
Answer: The value was 43 % UTC.

Question: With “1198923 (kT*kT*dG*dG*dA*dA*dG*dA*dT*d[5mC]*dT*kG*dA*kA*dA*k[5mC]; antisense) [Compound 1198923]” as the substance, how does the “YAP1 (% UTC)” value [9] read?
Answer: Its value is 73 % UTC.

Question: How did the “YAP1 (% UTC)” value [5] turn out when “1198277 (kA*kA*dG*dT*dA*dA*dG*dG*dT*dT*dT*e[5mC]*e[5mC]*e[5mC]*kA*kG; antisense) [Compound 1198277]” was run?
Answer: The value was 32 % UTC.

Question: “1198381 (kT*dA*dG*dA*dG*dT*dA*dT*dG*dT*dG*kG*e[5mC]*kA*eA*kT; antisense) [Compound 1198381]” was tested. Which “YAP1 (% UTC)” value [6] did it give?
Answer: Its value is 19 % UTC.

Question: How did the “YAP1 (% UT)” value [3] turn out when “1198857 (kT*k[5mC]*dT*dT*dA*dT*dA*dT*dG*dG*dT*kT*eT*kT*eG*kT; antisense) [Compound 1198857]” was run?
Answer: The value was 19 % UT.

Question: Which “YAP1 (% UT)” value [1] does the source give for “1198303 (kG*kG*kT*dA*dT*dA*dA*d[5mC]*dT*dG*dG*dG*k[5mC]*eA*kA*eA; antisense) [Compound 1198303]” here?
Answer: The value was 27 % UT.

Question: For “1198876 (kT*kA*dA*dA*dG*dT*dG*dT*dA*dT*dG*kT*e[5mC]*kA*eG*kA; antisense) [Compound 1198876]”, which “YAP1 (% UT)” value [10] is on record?
Answer: The value was 31 % UT.

Question: With “1198858 (k[5mC]*kT*d[5mC]*dT*dT*dA*dT*dA*dT*dG*dG*kT*eT*kT*eT*kG) [Compound 1198858]” as the substance, how does the “YAP1 (% UT)” value [10] read?
Answer: Its value is 29 % UT.

Question: Which “YAP1 (% UTC)” value [8] does the source give for “1198539 (antisense kG*kA*d[5mC]*dT*dA*dA*dG*dT*dA*dA*dG*eG*kT*eT*kT*e[5mC]) [Compound 1198539]” here?
Answer: The value was 54 % UTC.

Question: How did the “YAP1 (% UTC)” value [5] turn out when “1198466 (antisense kA*kG*dA*dG*dT*dA*dT*dG*dT*dG*dG*e[5mC]*kA*eA*kT*eA) [Compound 1198466]” was run?
Answer: The value was 12 % UTC.

Question: Which “YAP1 (% UTC)” value [8] does the source give for “1198477 (antisense kG*kA*dG*dG*dT*dA*dT*dA*dA*d[5mC]*dT*eG*kG*eG*k[5mC]*eA) [Compound 1198477]” here?
Answer: The value was 47 % UTC.

Question: “1198346 (kT*kA*kA*dT*dA*dT*dT*dG*d[5mC]*dA*dA*dT*k[5mC]*eT*kG*eT; antisense) [Compound 1198346]” was tested. Which “YAP1 (% UT)” value [7] did it give?
Answer: Its value is 40 % UT.

Question: For “1198957 (kT*kT*dT*dA*dT*dG*dT*dA*dA*dT*dA*kT*dT*kG*d[5mC]*kA; antisense) [Compound 1198957]”, which “YAP1 (% UTC)” value [9] is on record?
Answer: Its value is 81 % UTC.

Question: Which “YAP1 (% UT)” value (Table 50, Yap1 mRNA remaining as percent of untreated control (UT), SNU-449 cells, single dose) does the source give for “1198587 (antisense kG*kA*kT*dT*dT*dA*dG*dG*dA*dT*dG*d[5mC]*kA*kT*kG*eG) [Compound 1198587]” here?
Answer: Its value is 41 % UT.

Question: “1198715 (kA*eT*kT*dG*dT*d[5mC]*dT*d[5mC]*dA*dT*dG*d[5mC]*e[5mC]*eT*kT*kA; antisense) [Compound 1198715]” was tested. Which “YAP1 (% UTC)” value [4] did it give?
Answer: Its value is 33 % UTC.
